For this assay, the system named is extracellular matrix (ECM) bound FGF. As to the kind of experiment: Release of extracellular matrix (ECM) bound FGF. The assay is classed as biochemical. As for the experimental part: The polymers were tested according to the method of Vlodavsky [Vlodavsky, I., Bar-Shavit, R., Korner, G., and Foks, Z., Extracellular matrix-bound growth factors, enzymes, and plasma proteins, in Molecular and cellular aspects of basement membrane, Academic Press, 327-343 (1993)]. Release of ECM bound bFGF was low (15%) at the concentration range between 1 and 25 mg/ml for N-acryl-4-hydroxyproline based polymers. Under the same conditions, heparin released about 80% of the ECM bound bFGF at a concentration of 2 to 25 mg/ml.

heparin: the “released extracellular matrix (ECM) bound FGF” value is 80%. Moreover, where the note is “concentration of 2 to 25 mg/ml”, the “Release of ECM bound bFGF” value is “about 80%”.

These data come from US5630978A, “Preparation of biologically active molecules by molecular imprinting” (Yissum Research Development Co. of The Hebrew University of …, priority 1995, dated 1997).
